Source: patent US20260112450A1, “METHODS FOR SELECTION OF CANCER PATIENTS FOR ANTI-ANGIOGENIC AND IMMUNE CHECKPOINT BLOCKAGE THERAPIES AND COMBINATIONS THEREOF” (Washington University, priority 2022, published 2026)
Values joined by “and” are separate entries in the source; they are usually repeats but may differ in a detail not shown here. Identical values can stand only once.

How the values were obtained:
[1] = test system: clear cell renal carcinoma; assay: Braun dataset (Checkmate 025 and Checkmate 010): overall survival, re-evaluated by angio-immune subtype; type: in vivo, human; details: for differences in median OS between angio-immune molecular subtypes: comparison of C1, C2 and C3 within one treatment arm
Excerpt: (§1) Immunotherapy datasets: Pre-treatment TPM normalized RNA sequencing data from anti-PD1/L1 and anti-CTLA4 treated cohorts were downloaded for the studies as described in Table 1. Studies were selected based on the following criteria: >20 samples for enrichment calculation, RNA sequencing of pre-treatment biopsies, and only anti-PD1/PDL1 treated patients. Gene signature enrichment and molecular subtypes were derived as described elsewhere in the manuscript. Survival and response rates to treatment when available were compared among angio-immune clusters.
(§2) Quantification and Statistical Analysis: Unless indicated elsewhere, all visualizations were completed in GraphPad Prism 9. GraphPad Prism 9 was used for all statistical analysis. Data is presented as mean±standard error of mean. One way ANOVA was used for comparison across more than two groups. Non-parametric tests were used when data was not normally distributed. Log rank tests were used for all survival analysis. Alpha value of 0.05 was used throughout the study.
(§3) The approval of the combination of avelumab, an anti-PDL1, and axitinib, a small molecule tyrosine kinase inhibitor, for the first-line treatment of metastatic renal cancer was provided in 2020. […] Next, it was sought to ascertain if stratification by angio-immune subtypes can confer more significant differences in responses and survival.
(§4) The enrichment of the 91 angio-immune signatures was scored using RNA sequencing data from pre-treatment biopsies.
Survival was tracked across clusters to identify if angio-immune molecular subtypes can inform treatment choice in this setting. […] To determine if patients belonging to C1, C2, and C3 derive clinical benefit from Nivolumab over everolimus, OS was tracked among angio-immune molecular subtypes across treatment arms.

metastatic renal cancer = assay: Javelin Renal 101 clinical trial: progression free survival, re-evaluated by angio-immune subtype; type: in vivo, human
Excerpt: as §1, §2, §3, §4
Survival was tracked across clusters to identify if angio-immune molecular subtypes can inform treatment choice in this setting.

[2] = all patients with pre-treatment RNA sequencing data, Braun dataset
[3] = patients in angio-immune subtype C1, Braun dataset
[4] = patients in angio-immune subtype C2, Braun dataset
[5] = patients in angio-immune subtype C3, Braun dataset

| Compound | median OS [1, 2] [months] | differences in median OS between angio-immune molecular subtypes [1] | clinical benefit (OS) compared to everolimus ([1]; patients in C1, p=0.6347) | clinical benefit (OS) compared to everolimus ([1]; patients in C2, p=0.0581) | median OS compared to the everolimus arm ([1]; patients in C3, p<0.0043) | median OS [1, 3] [months] | median OS [1, 4] | median OS [1, 5] | median PFS (metastatic renal cancer; all patients with pre-treatment RNA sequencing data, Javelin Renal 101 dataset) [months] | median PFS (metastatic renal cancer; patients in angio-immune subtype C1, Javelin Renal 101 dataset) [months] | median PFS (metastatic renal cancer; patients in angio-immune subtype C2, Javelin Renal 101 dataset) [months] | median PFS (metastatic renal cancer; patients in angio-immune subtype C3, Javelin Renal 101 dataset) [months] |
| --- | --- | --- | --- | --- | --- | --- | --- | --- | --- | --- | --- | --- |
| Nivolumab: an anti-PD1 therapy | 25.9877 | significant improvement in median OS | no clinical benefit | no statistically significant clinical benefit | significantly improved | 16.9528 | 36.961 months and 36.96 months | 29.8645 months and 29.86 months |  |  |  |  |
| CO[C@H]1C[C@@H]2CC[C@@H](C)[C@@](O)(O2)C(=O)C(=O)N2CCCC[C@H]2C(=O)O[C@H]([C@H](C)C[C@@H]2CC[C@@H](OCCO)[C@H](OC)C2)CC(=O)[C@H](C)/C=C(\C)[C@@H](O)[C@@H](OC)C(=O)[C@H](C)C[C@H](C)/C=C/C=C/C=C/1C [everolimus] | 19.7454 | no significant differences |  |  |  | 24.6735 | 21.13 months | 13.27 months |  |  |  |  |
| CCN(CC)CCNC(=O)c1c(C)[nH]c(/C=C2\C(=O)Nc3ccc(F)cc32)c1C [sunitinib] |  |  |  |  |  |  |  |  | 8.4 | 9.7 | 8.3 | 8.2 |
